Where “and” joins values, the source holds several entries; their conditions need not be identical. Equal values may be shown once. Calls of active or inactive are those of the source. No rule for the calls is given here. Some results are limits rather than exact numbers.

The test has as its target Perilipin-1 (Homo sapiens) + 1-acylglycerol-3-phosphate O-acyltransferase ABHD5 (Homo sapiens) (UniProt O60240+Q8WTS1). In words: ABHD5-PLIN1 binding inhibitors, late-stage follow-up, counter-screen for ABHD5-PLIN5 interaction inhibitor project, biochemical, luminescence, dose response (AID 651766). (In general: A counterscreen serves to expose hits that act by an unwanted route or on another target.)
In general, IC50 refers to the concentration needed to halve the response being measured. `CCOc1cc(N)c(Cl)cc1C(=O)NCC1CN(Cc2ccc(F)cc2)CCO1` (stereo unspecified): the IC50 was 1.2 µM.
The value for `CCN(CC)CCNC(=O)c1ccc(NC(=O)c2cn(-c3ccccc3)nc2-c2cccs2)cc1` was “inactive”; that for `CCN(CC)CCC(C)OC(c1ccccc1)c1ccccc1` (stereo unspecified) was 1.44 µM.
The value for `CCCCNC(=O)Nc1ccc2c(c1)N(C)C(=O)c1ccccc1S2` was 1.46 µM.
As to `CCOC(=O)c1c(NC(C)=O)sc2c1CCC(C=O)=C2Sc1ccccc1`, the IC50 is 1.62 µM.
As to `CC(=O)Oc1ccc(C23c4ccccc4C2(OC(C)=O)c2cc(OC(C)=O)ccc23)cc1` (stereo unspecified), the IC50 is > 39.8 µM (inactive).
Turning to `CC1CCN(S(=O)(=O)c2ccc(NC(=O)Cc3ccccc3)cc2)CC1`, the IC50 was 3.98 µM.
In the case of `CC(=O)Cc1cc(O)c2ccccc2c1OC(=O)c1ccccc1`, the IC50 is 1.36 µM.
`NC(=NCCCCCCN=C(N)/N=C(\N)Nc1ccc(Cl)cc1)/N=C(\N)Nc1ccc(Cl)cc1`: the IC50 was 2.14 µM and 2.18 µM.
Turning to `COc1cc2c(cc1OC)C(C)N(CCc1ccc(Cl)cc1)CC2` (stereo unspecified), the IC50 result was “inactive”.
As for `O=C(/C(=C/O)N=Nc1ccc(Cl)cc1)c1ccncc1`, the IC50 is 5.2 µM.
The figure for `COc1ccc(C)c2sc(N(CCN(C)C)C(=O)/C=C/c3cccs3)nc12` is 7.16 µM; for `COc1cc(C)c2sc3ccccc3c(=O)c2c1NCCN(C)C` it is > 39.8 µM (inactive).
The value for `FC(F)(F)c1cccc(NC(=S)N(CCCN2CCCC2)Cc2cccn2Cc2ccc(Cl)cc2)c1` was 8.99 µM; that for `CCN(CC)CCOc1ccc(/C(=C(/Cl)c2ccccc2)c2ccccc2)cc1` was 0.983 µM; that for `CC1=CC(C)(C)Nc2ccc(OC(=O)C(C)N3C(=O)c4ccccc4C3=O)cc21` (stereo unspecified) was 2.13 µM.
The value for `CC1Sc2ccc(S(=O)(=O)N3CCC(C(=O)NCc4ccc(Cl)cc4)CC3)cc2NC1=O` (stereo unspecified) was 4.51 µM; that for `COc1ccc(NC(=S)N(CCCN2CCCC2)Cc2cccn2Cc2ccc(Cl)cc2)cc1Cl` was “inactive”; that for `C=C[C@]1(C)C[C@@H](OC(=O)CSCCN(CC)CC)[C@]2(C)C(C)CC[C@]3(CCC(=O)[C@H]32)[C@@H](C)[C@@H]1O` (stereo partly specified) was “inactive”.
In the case of `COc1ccccc1-c1cc(C(=O)NC2CCN(C)CC2)c2ccc(Cl)c(C)c2n1`, the IC50 is 9.85 µM.
For the compound `COc1cc(OC)cc(C(=O)NC(=S)N(Cc2ccccc2)C(C)C)c1`, the IC50 is 1.46 µM.
The figure for `CN(C)CCCN(C(=O)CCc1ccccc1)c1nc2ccc(Br)cc2s1` is 6.82 µM; for `COCCN(CCOC)c1nc(N)c2c(N)nc3c(c2c1C#N)CC(=O)N3Cc1ccc(Cl)cc1` it is > 39.8 µM (inactive).
The value for `O=c1[nH]c(C2CCN(S(=O)(=O)c3ccc(S(=O)(=O)NC4CC4)cc3)CC2)nc2c1nnn2Cc1ccc(F)cc1` was 1.99 µM; that for `CC(=O)Nc1ccc(S(=O)(=O)N2c3ccc(F)cc3CCC2C)cc1` (stereo unspecified) was 5.16 µM; that for `O=c1[nH]c(C2CCN(S(=O)(=O)c3ccc(F)cc3)CC2)nc2c1nnn2Cc1ccc2c(c1)OCCO2` was 8.94 µM.
Consider `CN(C)CCCN(C(=O)CCc1ccccc1)c1nc2ccc(Cl)cc2s1`, for which the IC50 is 5.99 µM.
The figure for `CC(=O)Cc1cc(O)c2ccccc2c1OC(=O)c1ccc(Br)cc1` is 2.04 µM.
As to `Cc1ccc2c(CC(=O)N3CCN(S(=O)(=O)c4ccc5c(c4)OCCO5)CC3)coc2c1`, the IC50 was 2.38 µM and 1.6 µM.
Take `CCCNC(=O)Nc1ccc2c(c1)N(C)C(=O)c1ccccc1S2`: the IC50 is 3.73 µM.
The value for `CCOC(=O)c1c(NC(=O)/C=C/C(=O)O)sc(C)c1-c1ccc(C(C)(C)C)cc1` was 3.72 µM; that for `Cc1cc(C)c(NC(=O)CN2CCN3CCCC3C2)c(C)c1` (stereo unspecified) was “inactive”.
The value for `Cc1nc2c(o1)CCc1ccccc1C2N1CCN(C)CC1` (stereo unspecified) was 4.16 µM; that for `Cc1cc(C)c2nc(NNC(=O)c3ccc(S(=O)(=O)N4CCCC(C)C4)cc3)sc2c1` (stereo unspecified) was 2.53 µM; that for `CC(C)c1ccc(N2C=Nc3ccc(C(C)C)cc3C2)cc1` was 1.26 µM.
The entry for `O=C(C[n+]1cccc(CNC(=O)c2ccc(OC(F)F)cc2)c1)Nc1cccc(C(F)(F)F)c1` is “inactive”.
For the compound `CCCCOC(=O)Nc1cc(C(=O)OC)ccc1C(=O)OC`, the half-inhibitory concentration (IC50) is 3.83 µM.
The figure for `CN(C)CCN(Cc1ccco1)c1ccccn1` is > 39.8 µM (inactive).
The value for `Cc1ccc2nc3cc([N+](=O)[O-])cc([N+](=O)[O-])c3cc2c1` was 0.496 µM; that for `CN(C)CCOC1(Cc2ccc(F)cc2)CCC(C(C)(C)C)CC1` (stereo unspecified) was > 39.8 µM (inactive).
In the case of `Cc1cc(C)c(NC(=O)C[N+](C)(C)CC(O)COc2cccc3ccccc23)c(C)c1` (stereo unspecified), the IC50 is 4.48 µM.
As for `CC(CCc1ccco1)NC(=O)CCc1nnc2ccc(NCc3ccccc3Cl)nn12` (stereo unspecified), the IC50 is 0.744 µM.
The value for `CC1CCN(S(=O)(=O)c2ccc(NC(=O)Cc3cccs3)cc2)CC1` was 3.54 µM; that for `CCN(CC)CCOCCOC(=O)C1(c2ccccc2)CCCC1` was 0.925 µM; that for `CN1CCC(=C2c3ccccc3CC(=O)c3sccc32)CC1` was > 39.8 µM (inactive).
The value for `CCN(CC)CCN(CC(=O)Nc1c(C)cc(C)cc1C)C(=O)c1ccccc1` was 7.34 µM.

Values taken from PubChem BioAssay AID651766 (The Scripps Research Institute Molecular Screening Center, 2012).
